From ChEMBL document CHEMBL1201862, “PubChem BioAssay data set” (2004) come the findings set out here.

Calls of active or inactive are those of the source. Some results are limits rather than exact numbers.

Broadly, the EC50 is the midpoint of the concentration-response curve. As usually defined, the IC50 is the concentration that gives 50% inhibition.

For data set [1], the target named is Sphingosine 1-phosphate receptor 3 (Homo sapiens, UniProt Q99500). The experiment in a line: Dose Response Cell-Based Assay for Agonists of the Sphingosine 1-Phosphate Receptor 3 (S1P3): Purchased Analogues. [Related pubchem assays: 373, 439 ]. Format: functional.
In data set [2] the target is Sphingosine 1-phosphate receptor 2 (Homo sapiens, UniProt O95136). Description: Dose Response Cell-Based Assay for Agonists of the Sphingosine 1-Phosphate Receptor 2 (S1P2): Purchased Analogues. [Related pubchem assays: 1192, 373, 439 ]. Format: functional.
Data set [3] has as its target Sphingosine 1-phosphate receptor 1 (Homo sapiens, UniProt P21453). Description: Dose Response Cell-Based Assay for Agonists of the Sphingosine 1-Phosphate Receptor 1 (S1P1): Purchased Analogues. [Related pubchem assays: 1192, 373, 439 ]. Format: functional.
The target in data set [4] is Serine/threonine-protein phosphatase PP1-alpha catalytic subunit (Homo sapiens, UniProt P62136). The experiment in a line: PP1 phosphatase inhibitors, dose response, biochemical, fluorescence (AID 2394).
In data set [5] the target is Serine/threonine-protein phosphatase (Homo sapiens, UniProt Q9BPW0). The experiment in a line: PP5 phosphatase inhibitors, dose response, biochemical, fluorescence (AID 2395).
A short description of data set [6]: Artemis endonuclease inhibitor potency, dose response, biochemical, fluorescence intensity (AID 720701).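 Note: Artemis endonuclease enzyme.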 Format: functional.
Data set [7] has as its target T1, NADPH oxidase 1 (Homo sapiens, UniProt Q9Y5S8). Description: Late-stage luminescence-based cell-based dose response assay to identify inhibitors of NADPH oxidase 1 (NOX1): Purchased analogs 2. Format: functional.
The target in the next data set is Cytochrome P450 2D6 (Homo sapiens, UniProt P10635).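 Note: CYP2D6 member of a cytochrome P450 panel assay.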
Another data set deals with Cytochrome P450 3A4 (Homo sapiens, UniProt P08684).
In data set [8] the target is Aryl hydrocarbon receptor (Homo sapiens, UniProt P35869). The experiment in a line: Luminescence-based cell-based high throughput dose response assay for activators of the Aryl Hydrocarbon Receptor (AHR). [Related pubchem assays: 2796 (Primary screen (AHR activators in singlicate)), 2845 (Confirmation screen (AHR activators in triplicate)), 434939 (Counterscreen (PXR activators in triplicate)), 2804 (Summary (AHR activators))]. Format: ADME.

The target of data set [9] is 5-hydroxytryptamine receptor 1A (Homo sapiens, UniProt P08908). Format: functional.
For data set [10], the target named is T2, Rac GTPase-activating protein 1 (Homo sapiens, UniProt Q9H0H5).
T2 sequence (Q9H0H5 whole entry): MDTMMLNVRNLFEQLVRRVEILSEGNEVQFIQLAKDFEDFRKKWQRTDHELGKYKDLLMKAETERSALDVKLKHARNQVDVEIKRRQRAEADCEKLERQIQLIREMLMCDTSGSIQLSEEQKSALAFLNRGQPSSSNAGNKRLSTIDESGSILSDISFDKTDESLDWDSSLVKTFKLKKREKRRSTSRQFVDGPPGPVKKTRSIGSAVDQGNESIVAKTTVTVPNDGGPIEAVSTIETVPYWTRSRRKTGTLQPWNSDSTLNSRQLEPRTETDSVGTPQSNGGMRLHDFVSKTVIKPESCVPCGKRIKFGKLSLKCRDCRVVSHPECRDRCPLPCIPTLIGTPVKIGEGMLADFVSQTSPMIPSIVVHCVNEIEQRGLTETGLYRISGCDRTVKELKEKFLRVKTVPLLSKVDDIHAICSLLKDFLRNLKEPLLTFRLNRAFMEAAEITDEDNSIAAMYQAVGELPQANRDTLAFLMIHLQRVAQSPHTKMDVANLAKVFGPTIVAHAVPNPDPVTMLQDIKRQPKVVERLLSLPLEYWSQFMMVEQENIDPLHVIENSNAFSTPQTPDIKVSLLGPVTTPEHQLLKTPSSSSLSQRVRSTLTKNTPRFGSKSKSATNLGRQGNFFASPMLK
Description: MgcRacGAP GTPase-activating activity inhibitors, confirmation, biochemical, ADP Hunter fluorescence, primary and confirmatory (AID 624330). Format: functional.

The target in data set [11] is T3, Neuropeptide Y receptor type 2 (Homo sapiens, UniProt P49146).
T3 sequence (P49146 whole entry): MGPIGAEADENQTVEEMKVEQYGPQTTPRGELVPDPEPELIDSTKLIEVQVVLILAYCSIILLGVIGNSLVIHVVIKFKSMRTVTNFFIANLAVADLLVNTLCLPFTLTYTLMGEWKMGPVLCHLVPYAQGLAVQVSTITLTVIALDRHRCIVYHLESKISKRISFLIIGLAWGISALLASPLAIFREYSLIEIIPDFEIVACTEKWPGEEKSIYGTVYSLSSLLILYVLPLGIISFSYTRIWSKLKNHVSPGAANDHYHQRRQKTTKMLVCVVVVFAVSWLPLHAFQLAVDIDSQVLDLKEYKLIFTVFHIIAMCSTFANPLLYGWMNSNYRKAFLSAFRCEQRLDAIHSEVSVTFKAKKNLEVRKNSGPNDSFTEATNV
Description: NPY-Y2 antagonist potency, selectivity check, dose response, counter-screen for NPY-Y1 antagonist project, cell-based (AID 1278). Format: functional. For orientation: The purpose of a counterscreen is to sort out artefacts and off-target activity.

Data set [12] addresses T1, NADPH oxidase 1. Format: functional, cell-based.
Data set [13] concerns the target Solute carrier family 12 member 2/member 5 (Homo sapiens, UniProt P55011+Q9H2X9). The experiment in a line: KCC2 and NKCC1 inhibition by rubidium flux, cell-based, NKCC1 counter-screen (AID 1734). Format: functional, HEK293.
Data set [14] deals with Voltage-gated inwardly rectifying potassium channel KCNH2 (Homo sapiens, UniProt Q12809). Description: hERG protection from proarrhythmic block, potency, dose response, cell-based, thallium flux (AID 2121). Format: ADME. (The hERG channel carries a current that helps repolarise heart muscle cells.)
Sequence of Voltage-gated inwardly rectifying potassium channel KCNH2 (Q12809 whole entry): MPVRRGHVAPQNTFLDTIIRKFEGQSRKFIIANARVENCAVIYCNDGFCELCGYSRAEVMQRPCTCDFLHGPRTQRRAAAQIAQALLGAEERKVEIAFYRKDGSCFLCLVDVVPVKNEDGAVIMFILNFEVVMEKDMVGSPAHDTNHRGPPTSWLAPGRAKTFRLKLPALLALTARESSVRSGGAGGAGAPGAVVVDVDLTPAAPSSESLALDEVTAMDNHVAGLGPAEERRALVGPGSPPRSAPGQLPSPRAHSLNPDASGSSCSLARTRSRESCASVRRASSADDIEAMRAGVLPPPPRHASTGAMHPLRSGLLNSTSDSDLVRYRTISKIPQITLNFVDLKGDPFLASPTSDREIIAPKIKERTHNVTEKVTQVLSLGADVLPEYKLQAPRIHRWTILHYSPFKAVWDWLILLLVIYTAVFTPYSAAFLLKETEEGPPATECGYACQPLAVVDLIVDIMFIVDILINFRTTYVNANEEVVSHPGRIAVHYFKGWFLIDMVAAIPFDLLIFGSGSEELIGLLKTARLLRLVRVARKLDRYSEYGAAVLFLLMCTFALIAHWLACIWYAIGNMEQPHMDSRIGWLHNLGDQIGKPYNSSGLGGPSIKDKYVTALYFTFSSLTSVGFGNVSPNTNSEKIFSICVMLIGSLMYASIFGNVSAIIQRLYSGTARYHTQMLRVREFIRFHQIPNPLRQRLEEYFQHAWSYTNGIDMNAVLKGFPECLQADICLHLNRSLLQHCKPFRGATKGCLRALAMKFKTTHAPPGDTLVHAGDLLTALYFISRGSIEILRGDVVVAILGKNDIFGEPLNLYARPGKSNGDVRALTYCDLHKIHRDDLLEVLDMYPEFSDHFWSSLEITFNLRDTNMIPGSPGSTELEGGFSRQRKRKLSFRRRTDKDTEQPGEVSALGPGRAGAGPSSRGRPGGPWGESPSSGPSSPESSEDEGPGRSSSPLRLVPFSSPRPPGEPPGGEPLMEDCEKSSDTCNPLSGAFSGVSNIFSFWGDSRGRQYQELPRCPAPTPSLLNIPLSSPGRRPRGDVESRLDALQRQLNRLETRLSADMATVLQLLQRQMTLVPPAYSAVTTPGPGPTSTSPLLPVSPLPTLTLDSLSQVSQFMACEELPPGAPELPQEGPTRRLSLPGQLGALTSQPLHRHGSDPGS

T1 sequence (Q9Y5S8 whole entry): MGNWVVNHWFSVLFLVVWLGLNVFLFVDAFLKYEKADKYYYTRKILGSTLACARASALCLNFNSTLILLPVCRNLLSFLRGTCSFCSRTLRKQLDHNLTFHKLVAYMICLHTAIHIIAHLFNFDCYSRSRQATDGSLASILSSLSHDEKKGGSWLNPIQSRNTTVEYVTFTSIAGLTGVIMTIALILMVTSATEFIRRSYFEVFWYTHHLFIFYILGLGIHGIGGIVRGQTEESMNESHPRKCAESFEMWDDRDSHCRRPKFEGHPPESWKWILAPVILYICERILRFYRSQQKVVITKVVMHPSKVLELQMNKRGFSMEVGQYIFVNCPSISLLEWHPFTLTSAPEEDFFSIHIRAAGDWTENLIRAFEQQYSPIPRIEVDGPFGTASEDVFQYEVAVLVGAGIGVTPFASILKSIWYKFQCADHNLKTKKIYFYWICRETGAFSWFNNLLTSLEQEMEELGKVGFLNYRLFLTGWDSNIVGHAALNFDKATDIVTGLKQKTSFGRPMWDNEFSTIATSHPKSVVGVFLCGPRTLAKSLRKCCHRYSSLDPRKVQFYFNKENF
Sequence of Sphingosine 1-phosphate receptor 1 (P21453 whole entry): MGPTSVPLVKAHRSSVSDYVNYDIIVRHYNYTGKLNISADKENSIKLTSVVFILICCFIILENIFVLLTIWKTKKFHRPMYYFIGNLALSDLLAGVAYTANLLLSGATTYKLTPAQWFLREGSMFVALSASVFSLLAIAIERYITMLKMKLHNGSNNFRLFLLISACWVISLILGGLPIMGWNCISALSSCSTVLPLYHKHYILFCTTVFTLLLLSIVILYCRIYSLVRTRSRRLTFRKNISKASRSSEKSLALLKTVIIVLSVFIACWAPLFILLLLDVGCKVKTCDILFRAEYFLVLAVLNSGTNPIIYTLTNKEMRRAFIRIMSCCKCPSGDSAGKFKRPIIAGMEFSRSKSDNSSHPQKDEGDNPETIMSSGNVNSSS
Sequence of Aryl hydrocarbon receptor (P35869 whole entry): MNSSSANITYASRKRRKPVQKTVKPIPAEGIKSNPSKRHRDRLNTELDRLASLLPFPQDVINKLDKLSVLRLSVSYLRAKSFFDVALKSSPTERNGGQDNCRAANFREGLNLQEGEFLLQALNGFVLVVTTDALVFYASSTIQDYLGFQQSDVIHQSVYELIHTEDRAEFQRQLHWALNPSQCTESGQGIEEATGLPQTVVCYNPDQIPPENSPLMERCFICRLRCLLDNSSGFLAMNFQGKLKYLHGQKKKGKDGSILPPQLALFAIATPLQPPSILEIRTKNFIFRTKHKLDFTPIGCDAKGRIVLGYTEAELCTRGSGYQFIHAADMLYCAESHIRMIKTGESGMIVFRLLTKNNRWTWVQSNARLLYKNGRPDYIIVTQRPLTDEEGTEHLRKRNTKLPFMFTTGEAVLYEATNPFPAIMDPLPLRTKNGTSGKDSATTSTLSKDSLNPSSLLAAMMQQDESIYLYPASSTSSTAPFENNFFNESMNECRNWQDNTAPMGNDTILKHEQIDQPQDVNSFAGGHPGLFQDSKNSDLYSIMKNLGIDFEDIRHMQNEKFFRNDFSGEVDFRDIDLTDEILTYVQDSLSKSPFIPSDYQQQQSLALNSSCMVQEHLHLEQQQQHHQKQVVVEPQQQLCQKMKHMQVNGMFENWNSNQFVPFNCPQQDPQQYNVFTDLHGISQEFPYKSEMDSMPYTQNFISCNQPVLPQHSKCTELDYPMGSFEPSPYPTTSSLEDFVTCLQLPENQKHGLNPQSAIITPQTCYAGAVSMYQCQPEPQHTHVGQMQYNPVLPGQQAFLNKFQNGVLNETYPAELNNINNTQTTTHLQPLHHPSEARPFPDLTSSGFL
Sequence of 5-hydroxytryptamine receptor 1A (P08908 whole entry): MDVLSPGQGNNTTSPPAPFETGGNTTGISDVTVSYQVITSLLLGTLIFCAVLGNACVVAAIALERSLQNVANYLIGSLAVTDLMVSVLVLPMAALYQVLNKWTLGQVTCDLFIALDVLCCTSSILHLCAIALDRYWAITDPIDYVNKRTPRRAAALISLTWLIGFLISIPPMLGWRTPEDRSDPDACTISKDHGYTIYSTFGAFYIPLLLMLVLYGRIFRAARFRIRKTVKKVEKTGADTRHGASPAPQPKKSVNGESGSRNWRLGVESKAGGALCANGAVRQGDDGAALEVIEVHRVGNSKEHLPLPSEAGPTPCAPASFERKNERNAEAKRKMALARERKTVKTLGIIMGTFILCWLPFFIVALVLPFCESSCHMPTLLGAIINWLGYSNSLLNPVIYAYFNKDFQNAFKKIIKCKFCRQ
Sequence of Serine/threonine-protein phosphatase PP1-alpha catalytic subunit (P62136 whole entry): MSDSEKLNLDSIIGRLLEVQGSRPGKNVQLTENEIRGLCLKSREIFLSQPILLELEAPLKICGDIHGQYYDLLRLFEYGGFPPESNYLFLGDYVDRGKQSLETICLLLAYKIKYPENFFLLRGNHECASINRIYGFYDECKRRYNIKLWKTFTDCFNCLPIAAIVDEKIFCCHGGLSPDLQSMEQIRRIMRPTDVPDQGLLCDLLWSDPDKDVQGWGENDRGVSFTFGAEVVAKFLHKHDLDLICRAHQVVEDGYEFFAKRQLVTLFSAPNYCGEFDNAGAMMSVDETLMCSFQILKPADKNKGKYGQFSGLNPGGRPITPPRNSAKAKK
Sequence of Serine/threonine-protein phosphatase (Q9BPW0 whole entry): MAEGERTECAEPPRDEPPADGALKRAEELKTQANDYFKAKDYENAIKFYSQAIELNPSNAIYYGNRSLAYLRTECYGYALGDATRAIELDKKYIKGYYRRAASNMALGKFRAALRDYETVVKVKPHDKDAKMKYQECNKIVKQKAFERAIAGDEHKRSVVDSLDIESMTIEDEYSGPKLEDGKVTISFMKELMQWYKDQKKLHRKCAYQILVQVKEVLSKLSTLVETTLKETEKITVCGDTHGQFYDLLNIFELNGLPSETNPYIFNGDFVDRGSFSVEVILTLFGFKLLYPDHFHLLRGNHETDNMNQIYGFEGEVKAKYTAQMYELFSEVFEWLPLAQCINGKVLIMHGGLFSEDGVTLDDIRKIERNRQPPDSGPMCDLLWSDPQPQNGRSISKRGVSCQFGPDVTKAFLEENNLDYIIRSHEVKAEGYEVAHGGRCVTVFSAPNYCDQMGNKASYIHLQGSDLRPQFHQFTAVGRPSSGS
Sequence of Cytochrome P450 2D6 (P10635 whole entry): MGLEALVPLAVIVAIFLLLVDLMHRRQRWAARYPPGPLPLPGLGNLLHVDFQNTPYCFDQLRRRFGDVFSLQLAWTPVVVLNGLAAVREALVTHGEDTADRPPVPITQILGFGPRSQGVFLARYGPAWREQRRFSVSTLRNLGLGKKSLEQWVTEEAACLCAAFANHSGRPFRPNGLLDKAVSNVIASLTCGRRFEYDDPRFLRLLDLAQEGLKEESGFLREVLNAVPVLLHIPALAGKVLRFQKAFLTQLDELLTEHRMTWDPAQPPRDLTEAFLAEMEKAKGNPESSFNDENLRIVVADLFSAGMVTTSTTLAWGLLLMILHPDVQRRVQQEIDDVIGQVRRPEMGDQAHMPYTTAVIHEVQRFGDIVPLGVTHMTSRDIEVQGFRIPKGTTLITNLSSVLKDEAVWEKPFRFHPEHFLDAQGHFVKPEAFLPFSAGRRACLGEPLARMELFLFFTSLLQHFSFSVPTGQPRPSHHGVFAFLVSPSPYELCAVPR

`CCC(C)NC(=O)c1cc(-c2ccc(C)cc2)on1` (configuration not stated): the results for the concentration for a half-maximal effect (EC50) in [1], in data set [2] and in [3] were > 50 µM (not active), > 10 µM (not active) and > 50 µM (not active), respectively. As for `CCCN(CC1CC1)c1nc(N)c2c(N)nc(OC)cc2c1C#N`, the IC50 in data set [4] was > 67 µM (not active); in data set [5] it was 9.67 µM (active); in data set [6], > 20 µM (inactive).

On to `CC(=O)Nc1ccc(/C=N/Nc2ccccc2)cc1`, for which the IC50 on NADPH oxidase 1 [7] is 6.22 µM (active).

For `Cc1cc(C)nc(Nc2ncc(O)n2-c2ccccc2)n1`, the AC50 entry at Cytochrome P450 2D6 and on Cytochrome P450 3A4 was “inconclusive” in each case. In [8], the EC50 was 9.35 µM (active). Take `CCOC(=O)c1c(C)nc(-c2ccccc2)nc1NC(=O)CC`: the EC50 in data set [9] is > 50 µM (not active).

On to `COc1cccc(Oc2c[nH]nc2-c2ccc(O)cc2O)c1`, for which the IC50 in [10] is 39.4 µM (active); in [11], > 35 µM (not active).

On to `O=C(Oc1cccc([N+](=O)[O-])c1)c1sc2ccccc2c1Cl`, for which the IC50 at NADPH oxidase 1 [12] is > 17 µM (not active).

On to `Cc1cnc(NC(=O)CSc2nnc(Cc3ccccc3)o2)s1`, for which the 50% inhibitory concentration (IC50) in data set [13] is 19.7 µM (active). As for `O=[N+]([O-])c1ccccc1OCCNCc1ccccc1`, in data set [14], the concentration for a half-maximal effect (EC50) is 4.78 µM (active). Moreover, the IC50 in data set [10] was 153 µM (active).
